Data on 24 compounds can be found in patent publication EP0433457B1, “ANTIPRURITIC COMPOSITION” (SHISEIDO COMPANY LIMITED, priority 1989, dated 1990).

For data set [1], the system named is pruritus of bradykinin. As to the kind of experiment: Antipruritic effect test (therapeutical test), bradykinin pruriogeneic animal, sample applied 5 minutes after bradykinin. As to conditions: 1 wt.%. In kind it is in vivo, Hartley-strain male guinea pigs. The protocol:
(§1) Using healthy Hartley-strain male guinea pigs, bradykinin, which is a pruriogeneic substance, was intradermally introduced at the side abdominal part to obtain a pruriogeneic animal.
(§2) The pruriginous behaviors were rated according to the standards shown below, and represented as pruriginous activity.
(§3) For four or six guinea pigs of one group, the above-mentioned behavior observation was conducted by three or more members at the same time for 20 minutes, and the pruriginous activity (score) determined as an average value ± standard deviation of the evaluation scores, and the antripruritic effect judged by the significance difference test with the Vehicle control group according to the Student's T test.
Healthy guinea pigs (weighing 450 - 600 g) depilated at the right abdominal side part on the previous day were divided into three groups of 6.
Using the same test methods as described above, the zinc picolinate preparation and the crotamiton preparation each of 1% concentration were examined by comparison with the Vehicle control group.

Data set [2] deals with histamine pruriogeneic animal. As to the kind of experiment: Antipruritic effect test of histamine pruriogeneic animal (therapeutical test). Format: in vivo, Hartley-strain male guinea pigs. As to conditions: Table 10; 3 wt.%, 0.1 ml applied five minutes after histamine 50 µg/0.05 ml intradermal; vehicle control 16.6 ± 0.5.
Data set [3] concerns kallikrein pruriogeneic animal. In words: Antipruritic test of kallikrein pruriogeneic animal (therapeutical test). Format: in vivo, Hartley-strain male guinea pigs. The source says: There is already known a pruriogeneic substance other than bradyokinin which cannot be inhibited by antihistamines; namely, kallikrein (International Journal of Dermatology, Vol. 14, pages 465 - 484, 1975).
Using healthy Hartley-strain male guinea pigs, bradykinin, which is a pruriogeneic substance, was intradermally administered at the side abdominal part to obtain a pruriogeneic animal.
The pruriginous behaviors were rated according to the standards shown below and represented as pruriginous activity.
For six guinea pigs of one group, the above-mentioned behavior observation was conducted by three or more members at the same time for 20 minutes, and the pruriginous activity (score) determined as an average value ± standard deviation of the evaluation scores, and the antripruritic effect judged by the significance difference test with the Vehicle control group according to the Student's T test.
Healthy male guinea pigs (weighing 450 - 600 g) depilated at the right abdominal side part by electrical clippers on the previous day were divided into three groups of six.
Using the same test method as in 4-1, animals were divided into four groups of 6.

The target of data set [4] is T1, plasmin (Homo sapiens, UniProt P00747).
T1 construct: purchased Sigma
As to the kind of experiment: Antiplasmin activity, fibrin plate method. Format: biochemical. The settings on record: 50% inhibition of fibrinolytic activity by plasmin; pre-incubation 37°C 30 minutes. The procedure:
The antiplasmin active action was determined as the sample amount necessary for a 50% inhibition (IC₅₀: mg/ml) from the inhibition ratio of the fibrinolytic activity by plasmin, by using the fibrin plate method.
A fibrin plate was prepared according to the method of Warren et al. (Hemostasis Vol. 4, page 110, 1975) by dissolving under heating 100 mg of agarose in 5 ml of a 0.01 M phosphate buffer supplemented with 0.15 M sodium chloride, followed by cooling to 50°C. In this solution was dissolved 10 mg of a plasminogen free fibrinogen (Daiichi Kagaku Yakuhin), and after 0.1 ml of a thrombin solution (100 units/ml, Mochida Seiyaku) was dropwise added to the solution, the mixture was immediately poured into a laboratory dish (diameter 9 cm, Terumo) and left to cool, to be thereby solidified. A plasminogen free fibrin plate was prepared. By forming a well 6 mm in diameter at the center of the dish.

Data set [5] concerns pruritus of bradykinin. As to the kind of experiment: Antipruritic effect test, bradykinin pruriogeneic animal, sample applied immediately before bradykinin. In kind it is in vivo, Hartley-strain male guinea pigs. The settings on record: bradykinin 10 µg/0.1 ml. The protocol:
as §1, §2, §3
Immediately thereafter, bradykinin 10 µg/0.1 ml was subcutaneously administered at the same applied site, and the score (average value ± standard deviation) of pruriginous activity by pruriginous behaviors was examined by comparison.
As described above in (1), healthy male guinea pigs (weighing 450 - 600 g) depilated at the right abdominal side part by electrical clippers on the previous day were divided into four groups each of four, of which one group was externally applied at the right abdominal side part with only the vehicle for external application (Vehicle control), and other groups with respective preparations of a mixture group of 1.24% by weight of picolinic acid and 2.88% by weight of zinc sulfate corresponding respectively to the picolinic acid amount and the zinc amount of 3% by weight of zinc picolinate, a 2.88% by weight zinc sulfate single substance group and a 3.17% by weight of zinc pyrithione group corresponding to the zinc amount in each 0.1 ml amount. Immediately thereafter, bradykinin 10 µg/0.1 ml was subcutaneously administered at the same applied site, and the score of pruriginous activity by pruriginous behaviors was examined by comparison.

Data set [6] deals with bradykinin. In words: Antipruritic effect test (therapeutical test) of chelated zinc compounds other than zinc picolinate, bradykinin. As to conditions: 1% (by weight), 0.1 ml applied 5 minutes after bradykinin 50 µg/0.5 ml intradermal; average score compared with Vehicle control group; 85% or less judged effective. In kind it is in vivo, guinea pigs. The procedure:
Healthy male guinea pigs (weighing 450 - 600 g) depilated at the right abdominal side part by electrical clippers on the previous day were divided into three groups of 6. At the right abdominal side part was intradermally administered 50 µg/0.5 ml of bradykinin, and 5 minutes later, one group was externally applied at the site where bradykinin had been applied with only the vehicle for external application (Vehicle control), and other groups with each 1% (by weight) concentration of samples in each 0.1 ml amount, and the average value of the scores of antipruritic activity by pruriginous behaviors was examined by comparison with the Vehicle control group.
The antipruritic effect was judged to be effective for an average value of the scores of 85% or less.

In data set [7] the test system is skin (Futat skin and Abraded skin). The settings on record: rabbit, in vivo.
Method: The test was conducted according to the method of the FDA method (U.S. Food and Drug Administration method).
Eight Japanese White species rabbits weighing 2.3 to 3 kg were depilated at the back by electrical clippers and divided into two groups of four, one group being as such (Futat skin) and the other group having an abrasion made at the testing side (Adraded skin), and were fixed on a fixer. An amount of 0.3 ml of the test substance was applied to the skin by a sticking plaster for an animal test having a lint cloth 25 mm in diameter. After 24 hours, the sticking plaster was removed, and the reaction of the skin evaluated in terms of the degrees of erythema and edema, according to the following standards. The judgement was again performed 72 hours later.
The skin primary irritation evaluation score is shown by an average value obtained by adding average values of a judgement of the formation of erythema and edema after 24 and 72 hours for four rabbits with Futat skin and Abraded skin, and dividing the value by the animal test sample number of 4.
The standards of the evaluation score (average value) of the skin safety is as shown below. Evaluation score less than 2: slight irritation or substantially no irritation Evaluation score of 2 - 5: moderate irritation Evaluation score of 5 or more: strong irritation The results are shown in Table-2.
Data set [8] has as its system rats (Sprague Dawley strain). In words: Acute toxicity tests. In kind it is in vivo. The procedure:
First, the toxicity of the antipruritic agent according to the present invention was examined. Acute toxicity tests were conducted by using healthy 5 to 6 weeks old male and female rats (Sprague Dawley strain). An oral administration was made by suspending zinc picolinate in 20% carboxymethyl cellulose, and a subcutaneous administration was made by suspending zinc picolinate in 10% carboxylmethyl cellulose.

Setting [9] is: Table 7, same test methods as above (therapeutical test, bradykinin), vehicle control 35.4 ± 3.1.
Where [10] appears, read: Table 9, 3 wt.%, 0.1 ml applied after kallikrein intradermal, vehicle control 18.68 ± 2.06.
Where [11] appears, read: Table 5, 0.1 ml applied 5 minutes after bradykinin 50 µg/0.05 ml intradermal, vehicle control 30.1 ± 3.6.

Structures can show the parent of a compound that is named as a salt.

T1 sequence (P00747 581-810 limits assumed, species assumed): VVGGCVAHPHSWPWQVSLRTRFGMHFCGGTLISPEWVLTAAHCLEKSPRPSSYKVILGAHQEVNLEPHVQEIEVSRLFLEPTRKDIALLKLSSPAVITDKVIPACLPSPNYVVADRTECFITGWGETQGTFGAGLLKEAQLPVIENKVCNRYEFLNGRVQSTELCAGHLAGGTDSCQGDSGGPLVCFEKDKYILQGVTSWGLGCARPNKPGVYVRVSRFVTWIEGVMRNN
T1 sequence (P00747 97-580 limits assumed, species assumed): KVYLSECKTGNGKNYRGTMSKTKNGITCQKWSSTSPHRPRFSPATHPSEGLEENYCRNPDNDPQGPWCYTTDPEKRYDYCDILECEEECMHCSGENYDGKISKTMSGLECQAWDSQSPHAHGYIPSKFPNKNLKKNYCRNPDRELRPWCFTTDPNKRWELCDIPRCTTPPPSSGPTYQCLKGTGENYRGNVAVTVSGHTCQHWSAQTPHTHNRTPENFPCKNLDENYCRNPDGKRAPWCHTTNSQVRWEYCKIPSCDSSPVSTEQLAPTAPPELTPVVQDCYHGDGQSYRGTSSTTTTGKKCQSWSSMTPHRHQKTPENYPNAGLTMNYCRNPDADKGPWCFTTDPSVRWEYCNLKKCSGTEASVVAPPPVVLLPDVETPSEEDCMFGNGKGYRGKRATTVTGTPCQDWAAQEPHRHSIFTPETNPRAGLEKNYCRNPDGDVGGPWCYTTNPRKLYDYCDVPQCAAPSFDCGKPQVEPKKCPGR

As for `CC=CC(=O)N(CC)c1ccccc1C` [Crotamiton, reference compound], the “Pruritic activity/20 min.” value in data set [1] (setting [9]) amounted to 29.3 ± 3.3; in data set [2], 18.9 ± 2.5; in [3] (setting [10]), 15.15 ± 1.92.
As to `CN(C)CCOC(c1ccccc1)c1ccccc1` [Diphenhydramine hydrochloride, reference compound], the IC₅₀ entry in data set [4] is given as “No action at 10 mg/ml”.
As to `CN(C)CCOC(c1ccccc1)c1ccccc1` [Diphenhydramine, reference compound], the “Pruritic activity/20 min.” value in [5] (Table 4, 1 wt.%, 0.1 ml external, mean ± SD, vehicle control 45.7 ± 5.7) was determined as 36.9 ± 3.0; in data set [1] (setting [11]), 27.9 ± 2.0; in data set [2], 12.4 ± 0.5; in [3] (setting [10]), 17.00 ± 1.26.
As to zinc 3-hexyloxypicolinate [J], the “Pruritic activity score (%)” value in [6] stood at 75.7%.
As to zinc 3-hydroxypicolinate, the “Pruritic activity score (%)” value in data set [6] came to 58.0%.
On the same count and under the same terms, under “zinc 3-methylpicolinate [Compound No. B]” stands 65.9%.
Still for that read-out and setting: as for “zinc 3-propoxypicolinate [Compound No. D]”, the figure is 41.2%; as for “zinc 3-undecylpicolinate [Compound No. M]”, 70.1%.
For “zinc 4-carboxypicolinate [Compound No. S]”, in [6], the “Pruritic activity score (%)” value is given as 66.3%.
Same read-out and setting: under “zinc 4-chloropicolinate [Compound No. R]” stands 18.5%; under “zinc 4-methylpicolinate [Compound No. C]”, 74.1%; under zinc 4-nitropicolinate [Compound No. Q], 58.3%.
As to “zinc 4-t-butylpicolinate [Compound No. I]”, the “Pruritic activity score (%)” value in data set [6] is listed as 63.3%.
For “zinc 4-undecylpicolinate [Compound No. N]”, the “Pruritic activity score (%)” value in data set [6] was 64.4%.
Turning to “zinc 5-(2-ethylhexyloxy)picolinate [Compound No. L]”, the “Pruritic activity score (%)” value in [6] is given as 60.3%.
As for “zinc 5-butoxypicolinate [Compound No. G]”, the “Pruritic activity score (%)” value in [6] is listed as 66.2%.
Same read-out and setting: as for “zinc 5-propoxypicolinate [Compound No. E]”, the figure is 81.5%.
For “zinc 6-butoxypicolinate [Compound No. H]”, the “Pruritic activity score (%)” value in data set [6] is 71.8%.
Still for that read-out and setting: under “zinc 6-hexyloxypicolinate [Compound No. K]” stands 74.8%; under “zinc 6-undecylpicolinate [Compound No. O]”, 65.0%.
On to zinc picolinate, for which the “amount soluble in water as such” value is listed as not above 0.5 % by weight. In addition, in data set [7], the “Skin primary irritation evaluation score” value was 1.6. Further, in [5] (Table 4, 0.01 wt.%, 0.1 ml external, mean ± SD, vehicle control 45.7 ± 5.7), the “Pruritic activity/20 min.” value came out at 17.5 ± 2.4. In [5] (Table 4, 10 wt.%, 0.1 ml external, mean ± SD, vehicle control 45.7 ± 5.7), the “Pruritic activity/20 min.” value stood at 15.5 ± 1.6. Further, the “Pruritic activity/20 min.” value in data set [5] (Table 6, 3 wt.%, 0.1 ml, vehicle control 40.1 ± 6.7) is 17.7 ± 1.4^*1. The compound also came in with an LD₅₀ value in [8] (Female rats, Oral) of more than 2000 mg/kg. Moreover, the Lethality in [8] (Female rats, Oral, dose 200 mg/kg, suspended in 20% carboxymethyl cellulose) is listed as 0/5. Besides, the Lethality in data set [8] (Female rats, Subcutaneous, dose 70 mg/kg) is 0/5. The Lethality in data set [8] (Female rats, Subcutaneous, dose 91 mg/kg) is recorded as 0/5. The Lethality in [8] (Female rats, Subcutaneous, dose 118 mg/kg) is recorded as 2/5. In data set [8] (Female rats, Subcutaneous, dose 154 mg/kg), the Lethality is given as 5/5. Also, in data set [8] (Female rats, Subcutaneous, dose 200 mg/kg), the Lethality was 5/5. This compound had an LD₅₀ value in data set [8] (Female rats, Subcutaneous, suspended in 10% carboxylmethyl cellulose) of 122 mg/kg. This compound came in with an LD₅₀ value in [8] (Male rats, Oral) of more than 2000 mg/kg. Also, in [8] (Male rats, Oral, dose 200 mg/kg, suspended in 20% carboxymethyl cellulose), the Lethality is listed as 0/5. Further, the Lethality in data set [8] (Male rats, Subcutaneous, dose 70 mg/kg) is listed as 0/5. Also, in data set [8] (Male rats, Subcutaneous, dose 91 mg/kg), the Lethality is listed as 1/5. Also, the Lethality in [8] (Male rats, Subcutaneous, dose 118 mg/kg) is given as 2/5. The Lethality in data set [8] (Male rats, Subcutaneous, dose 154 mg/kg) is listed as 4/5. Further, the Lethality in [8] (Male rats, Subcutaneous, dose 200 mg/kg) was 5/5. Moreover, the LD₅₀ value in data set [8] (Male rats, Subcutaneous, suspended in 10% carboxylmethyl cellulose) was found to be 121 mg/kg. The compound further came in with an IC₅₀ in data set [4] of 2.3 mg/mL. The “Pruritic activity/20 min.” value in [1] (setting [11]) is 14.9 ± 0.3. In addition, the “Pruritic activity/20 min.” value in [1] (setting [9]) was determined as 12.7 ± 0.7. Further, the “Pruritic activity/20 min.” value in data set [2] amounted to 7.4 ± 0.5. Moreover, in data set [3] (Table 8, 0.01 wt.%, 0.1 ml applied five minutes after kallikrein 25 units/0.05 ml intradermal, vehicle control 19.95 ± 2.41), the “Pruritic activity/20 min.” value was found to be 12.95 ± 0.95. Moreover, the “Pruritic activity/20 min.” value in data set [3] (Table 8, 10 wt.%, 0.1 ml applied five minutes after kallikrein 25 units/0.05 ml intradermal, vehicle control 19.95 ± 2.41) was 12.85 ± 0.70. In addition, the “Pruritic activity/20 min.” value in data set [3] (setting [10]) is 12.95 ± 0.95.
Regarding “zinc picolinate N-oxide [Compound No. P]”, the “Pruritic activity score (%)” value in [6] turned out to be 85.0%.
zinc pyrithione [reference compound]: in [5] (Table 6, 3.17 wt.%, 0.1 ml, vehicle control 40.1 ± 6.7), the “Pruritic activity/20 min.” value amounted to 43.4 ± 6.4.
Turning to zinc sulfate [reference compound], in data set [5] (Table 6, 2.88 wt.%, 0.1 ml, vehicle control 40.1 ± 6.7), the “Pruritic activity/20 min.” value amounted to 33.7 ± 5.2.
